# Results from ChEMBL document CHEMBL1138025, “Nocathiacin I analogues: synthesis, in vitro and in vivo biological activity of novel semi-synthetic thiazolyl peptide antibiotics” (Bioorg Med Chem Lett, 2004).
# Assays:
# Enterococcus faecalis = assay: In vitro antibacterial activity against methicillin-sensitive Enterococcus faecalis A20688; type: functional
# Mus musculus = assay: In vivo efficacy (PD50) against lethal Staphylococcus aureus systemic infection model in mice; type: functional; conditions: read-out: PD50
# Staphylococcus aureus = assay: In vitro antibacterial activity against methicillin-sensitive Staphylococcus aureus A15090; type: functional
# [1] = Equilibrium water solubility at pH 3.1; type: physicochemical
# Streptococcus pneumoniae = assay: In vitro antibacterial activity against penicillin-resistant Streptococcus pneumoniae A28272; type: functional
# [2] = Equilibrium water solubility at pH 3.4; type: physicochemical
# [3] = Equilibrium water solubility at pH 3.0; type: physicochemical
# [4] = Equilibrium water solubility at pH 2.9; type: physicochemical
SMILES,MIC (Enterococcus faecalis) [µg/mL],ED50 (Mus musculus) [mg/kg],MIC (Staphylococcus aureus) [µg/mL],solubility thermodynamic [1] [µg/mL],MIC (Streptococcus pneumoniae) [µg/mL],solubility thermodynamic [2] [µg/mL],solubility thermodynamic [3] [µg/mL],solubility thermodynamic [4] [µg/mL]
CO/C(C)=C1/NC(=O)[C@H]([C@@H](C)O)NC(=O)c2csc(n2)-c2cc(O)c(-c3nc(C(=O)NC(CNCCN(C)C)C(N)=O)cs3)nc2-c2csc(n2)[C@@H]2COC(=O)c3c4c5c(cccc5n3O)COC(=O)[C@@H](O[C@H]3C[C@](C)(O)[C@H](N(C)C)[C@H](C)O3)[C@@H](OC4)[C@H](NC(=O)c3csc1n3)c1nc(cs1)C(=O)N2 (stereo partly drawn),4,4.2,2,> 3800,0.03,,,
CO/C(C)=C1/NC(=O)[C@H]([C@@H](C)O)NC(=O)c2csc(n2)-c2cc(O)c(-c3nc(C(=O)NC(CN4CCOCC4)C(N)=O)cs3)nc2-c2csc(n2)[C@@H]2COC(=O)c3c4c5c(cccc5n3O)COC(=O)[C@@H](O[C@H]3C[C@](C)(O)[C@H](N(C)C)[C@H](C)O3)[C@@H](OC4)[C@H](NC(=O)c3csc1n3)c1nc(cs1)C(=O)N2 (stereo partly drawn),0.01,0.8,0.007,> 2100,0.01,,,
CO/C(C)=C1/NC(=O)[C@H]([C@@H](C)O)NC(=O)c2csc(n2)-c2cc(O)c(-c3nc(C(=O)NC(CN(C)CCO)C(N)=O)cs3)nc2-c2csc(n2)[C@@H]2COC(=O)c3c4c5c(cccc5n3O)COC(=O)[C@@H](O[C@H]3C[C@](C)(O)[C@H](N(C)C)[C@H](C)O3)[C@@H](OC4)[C@H](NC(=O)c3csc1n3)c1nc(cs1)C(=O)N2 (stereo partly drawn),0.06,0.8,0.01,,0.01,> 10000,,
CO/C(C)=C1/NC(=O)[C@H]([C@@H](C)O)NC(=O)c2csc(n2)-c2cc(O)c(-c3nc(C(=O)NC(CN4CCN(c5cccnc5)CC4)C(N)=O)cs3)nc2-c2csc(n2)[C@@H]2COC(=O)c3c4c5c(cccc5n3O)COC(=O)[C@@H](O[C@H]3C[C@](C)(O)[C@H](N(C)C)[C@H](C)O3)[C@@H](OC4)[C@H](NC(=O)c3csc1n3)c1nc(cs1)C(=O)N2 (stereo partly drawn),0.25,1.43,0.06,,0.007,,> 2300,
CO/C(C)=C1/NC(=O)[C@H]([C@@H](C)O)NC(=O)c2csc(n2)-c2cc(O)c(-c3nc(C(=O)NC(CN4CCN(CCN5CCOCC5)CC4)C(N)=O)cs3)nc2-c2csc(n2)[C@@H]2COC(=O)c3c4c5c(cccc5n3O)COC(=O)[C@@H](O[C@H]3C[C@](C)(O)[C@H](N(C)C)[C@H](C)O3)[C@@H](OC4)[C@H](NC(=O)c3csc1n3)c1nc(cs1)C(=O)N2 (stereo partly drawn),0.5,1.4,0.25,,0.06,,> 12300,
CO/C(C)=C1/NC(=O)[C@H]([C@@H](C)O)NC(=O)c2csc(n2)-c2cc(O)c(-c3nc(C(=O)NC(CN4CCN(C)CC4)C(N)=O)cs3)nc2-c2csc(n2)[C@@H]2COC(=O)c3c4c5c(cccc5n3O)COC(=O)[C@@H](O[C@H]3C[C@](C)(O)[C@H](N(C)C)[C@H](C)O3)[C@@H](OC4)[C@H](NC(=O)c3csc1n3)c1nc(cs1)C(=O)N2 (stereo partly drawn),0.5,1.4,0.25,,0.12,> 10000,,
CCOC(=O)CN1CCN(CC(NC(=O)c2csc(-c3nc4c(cc3O)-c3nc(cs3)C(=O)N[C@@H]([C@@H](C)O)C(=O)N/C(=C(\C)OC)c3nc(cs3)C(=O)N[C@@H]3c5nc(cs5)C(=O)N[C@@H](COC(=O)c5c6c7c(cccc7n5O)COC(=O)[C@@H](O[C@H]5C[C@](C)(O)[C@H](N(C)C)[C@H](C)O5)[C@H]3OC6)c3nc-4cs3)n2)C(N)=O)CC1 (stereo partly drawn),0.25,,0.06,,0.007,,,
CO/C(C)=C1/NC(=O)[C@H]([C@@H](C)O)NC(=O)c2csc(n2)-c2cc(O)c(-c3nc(C(=O)NC(CN4CCN(CCN(C)C)CC4)C(N)=O)cs3)nc2-c2csc(n2)[C@@H]2COC(=O)c3c4c5c(cccc5n3O)COC(=O)[C@@H](O[C@H]3C[C@](C)(O)[C@H](N(C)C)[C@H](C)O3)[C@@H](OC4)[C@H](NC(=O)c3csc1n3)c1nc(cs1)C(=O)N2 (stereo partly drawn),0.12,5.3,0.5,,0.25,> 3800,,
CO/C(C)=C1/NC(=O)[C@H]([C@@H](C)O)NC(=O)c2csc(n2)-c2cc(O)c(-c3nc(C(=O)NC(CN(C)CCN4CCCCC4)C(N)=O)cs3)nc2-c2csc(n2)[C@@H]2COC(=O)c3c4c5c(cccc5n3O)COC(=O)[C@@H](O[C@H]3C[C@](C)(O)[C@H](N(C)C)[C@H](C)O3)[C@@H](OC4)[C@H](NC(=O)c3csc1n3)c1nc(cs1)C(=O)N2 (stereo partly drawn),1,3.2,0.12,,0.03,,> 2700,
CO/C(C)=C1/NC(=O)[C@H]([C@@H](C)O)NC(=O)c2csc(n2)-c2cc(O)c(-c3nc(C(=O)NC(CN4CCN(CCOCCO)CC4)C(N)=O)cs3)nc2-c2csc(n2)[C@@H]2COC(=O)c3c4c5c(cccc5n3O)COC(=O)[C@@H](O[C@H]3C[C@](C)(O)[C@H](N(C)C)[C@H](C)O3)[C@@H](OC4)[C@H](NC(=O)c3csc1n3)c1nc(cs1)C(=O)N2 (stereo partly drawn),1,1.34,0.5,> 3000,0.12,,,
CO/C(C)=C1/NC(=O)[C@H]([C@@H](C)O)NC(=O)c2csc(n2)-c2cc(O)c(-c3nc(C(=O)NC(CN(C)CCCNc4ccncc4)C(N)=O)cs3)nc2-c2csc(n2)[C@@H]2COC(=O)c3c4c5c(cccc5n3O)COC(=O)[C@@H](O[C@H]3C[C@](C)(O)[C@H](N(C)C)[C@H](C)O3)[C@@H](OC4)[C@H](NC(=O)c3csc1n3)c1nc(cs1)C(=O)N2 (stereo partly drawn),0.5,> 10,1,,0.25,,> 3000,
CO/C(C)=C1/NC(=O)[C@H]([C@@H](C)O)NC(=O)c2csc(n2)-c2cc(O)c(-c3nc(C(=O)NC(CNCCNC(C)=O)C(N)=O)cs3)nc2-c2csc(n2)[C@@H]2COC(=O)c3c4c5c(cccc5n3O)COC(=O)[C@@H](O[C@H]3C[C@](C)(O)[C@H](N(C)C)[C@H](C)O3)[C@@H](OC4)[C@H](NC(=O)c3csc1n3)c1nc(cs1)C(=O)N2 (stereo partly drawn),4,> 10,1,> 3000,0.12,,,
CO/C(C)=C1/NC(=O)[C@H]([C@@H](C)O)NC(=O)c2csc(n2)-c2cc(O)c(-c3nc(C(=O)NC(CN4CCN(c5ccncc5)CC4)C(N)=O)cs3)nc2-c2csc(n2)[C@@H]2COC(=O)c3c4c5c(cccc5n3O)COC(=O)[C@@H](O[C@H]3C[C@](C)(O)[C@H](N(C)C)[C@H](C)O3)[C@@H](OC4)[C@H](NC(=O)c3csc1n3)c1nc(cs1)C(=O)N2 (stereo partly drawn),0.5,4.5,0.25,,0.06,,> 12500,
CO/C(C)=C1/NC(=O)[C@H]([C@@H](C)O)NC(=O)c2csc(n2)-c2cc(O)c(-c3nc(C(=O)NC(CN4CCN(c5ccccn5)CC4)C(N)=O)cs3)nc2-c2csc(n2)[C@@H]2COC(=O)c3c4c5c(cccc5n3O)COC(=O)[C@@H](O[C@H]3C[C@](C)(O)[C@H](N(C)C)[C@H](C)O3)[C@@H](OC4)[C@H](NC(=O)c3csc1n3)c1nc(cs1)C(=O)N2 (stereo partly drawn),0.25,< 0.62,0.12,,0.03,,> 2400,
CO/C(C)=C1/NC(=O)[C@H]([C@@H](C)O)NC(=O)c2csc(n2)-c2cc(O)c(-c3nc(C(=O)NC(CN(CCO)CCO)C(N)=O)cs3)nc2-c2csc(n2)[C@@H]2COC(=O)c3c4c5c(cccc5n3O)COC(=O)[C@@H](O[C@H]3C[C@](C)(O)[C@H](N(C)C)[C@H](C)O3)[C@@H](OC4)[C@H](NC(=O)c3csc1n3)c1nc(cs1)C(=O)N2 (stereo partly drawn),0.25,5,0.12,,0.01,,,> 1700
CNCCN(C)CC(NC(=O)c1csc(-c2nc3c(cc2O)-c2nc(cs2)C(=O)N[C@@H]([C@@H](C)O)C(=O)N/C(=C(\C)OC)c2nc(cs2)C(=O)N[C@@H]2c4nc(cs4)C(=O)N[C@@H](COC(=O)c4c5c6c(cccc6n4O)COC(=O)[C@@H](O[C@H]4C[C@](C)(O)[C@H](N(C)C)[C@H](C)O4)[C@H]2OC5)c2nc-3cs2)n1)C(N)=O (stereo partly drawn),0.5,> 10,0.06,,0.001,,> 2800,
CO/C(C)=C1/NC(=O)[C@H]([C@@H](C)O)NC(=O)c2csc(n2)-c2cc(O)c(-c3nc(C(=O)NC(CNCCc4ccccn4)C(N)=O)cs3)nc2-c2csc(n2)C2COC(=O)c3c4c5c(cccc5n3O)COC(=O)[C@@H](O[C@H]3C[C@](C)(O)[C@H](N(C)C)[C@H](C)O3)[C@@H](OC4)[C@H](NC(=O)c3csc1n3)c1nc(cs1)C(=O)N2 (stereo partly drawn),1,2.8,1,,0.25,> 10000,,
